Data: PMC11325084, “Pharmacokinetics and tissue distribution of LN002, a new compound alternative oxidase inhibitor against Cryptosporidium in rats” (Frontiers in Pharmacology, 2024)
Read-outs that look alike come from different tables or passages of the source.

Legend:
[1] = Stability of LN002 in rat plasma, liver homogenate and intestinal contents under storage conditions; format: in vitro ADME; set-up: Short-term stability at room temperature (6 h), measured concentration / Freeze and thaw stability at −20°C/Room temperature (3 cycles), measured concentration / Auto-sampler stability (12 h), measured concentration / Long-term stability at −20°C (30 days), measured concentration: unit not given here; conditions: for Auto-sampler stability (12 h), measured concentration / Freeze and thaw stability at −20°C/Room temperature (3 cycles), measured concentration / Long-term stability at −20°C (30 days), measured concentration / Short-term stability at room temperature (6 h), measured concentration: n = 6, mean ± SD
Description: By investigating the low, middle, and high-concentration stability of rat plasma, the liver and intestinal contents in six replicates at different storage conditions, autosampler, short-term, freeze and thaw, long-term stability, and stock solution stability evaluations were conducted.

[2] = Pharmacokinetics of LN002 in rat plasma after single intravenous injection or oral gavage; format: in vivo, Sprague–Dawley (SD) rats; conditions: rats; for AUC(0-t): read-out: AUC0–24 h
Description: A total of 24 SD rats, half for each sex, were randomly distributed into four groups and used in the plasma PK study. Heparin sodium was used to prevent blood clotting. Groups 1, 2, and 3 were single-dose oral administration groups, and the administered doses were 100, 200, and 400 mg/kg, respectively. The fourth group was a single-dose group, in which the subjects received 1 mg/kg LN002 via tail vein intravenous injection (In the oral administration group, the drugs were dissolved in 0.5% sodium carboxymethylcellulose, whereas those in the intravenous injection group were dissolved in N,N-dimethylformamide). After administration for each group, approximately 200–300 μL of plasma samples were collected from the tail vein at predefined times (0.167, 0.5, 0.75, 1, 2, 3, 4, 6, 8, 12, and 24 h) ([Song et al., 2021a]). Subsequently, these samples were then placed in centrifuge tubes containing heparin sodium, subjected to centrifugation at 5000 rpm for 10 min at 4°C, and the resulting supernatant was collected and stored at −20°C until further analysis. An aliquot of 100 µL of rat plasma was transferred into a 2 mL Eppendorf (EP) tube and precipitated with 300 µL of acetonitrile. The mixture was vortexed for 1 min, then centrifuged at 13,000 rpm at 4°C for 10 min, and passed through a 0.22 μm filter membrane. Final analysis was conducted by injecting 20 µL of supernatant into HPLC. A Shimadzu LC-20A system (Shimadzu Technologies, Kyoto, Japan) equipped with a LabSolutions system (version 5.1) system was used for HPLC analysis. The separation process utilized an ARD-C18 column (250 mm × 4.6 mm, 5 µm) (Zhongpu Technology Co., Ltd., Fuzhou, China). The analytes were detected using a UV detector at 333 nm. The chromatographic conditions used an isocratic mobile phase that combines methanol (solvent A) and deionized water (solvent B) (75:25, v/v), and they were propelled through the column at a constant flow rate of 1 mL/min, ensuring uniform separation. The injection volume was 20 μL. The temperature of the column was set to 40°C. Pharmacokinetic data were obtained via non-compartmental PK analysis of total concentration versus time profiles for plasma using Phoenix WinNonlin 8.2 (Certara, L.P., Princeton, NJ, United States). Statistical analysis and graphing were undertaken using GraphPad Prism 9.5 for Windows (GraphPad Software, Inc., La Jolla, CA, United States).

[3] = intestinal contents, nominal concentration 50 ng/g
[4] = intestinal contents, nominal concentration 200 ng/g
[5] = intestinal contents, nominal concentration 1,000 ng/g
[6] = liver, nominal concentration 50 ng/g
[7] = liver, nominal concentration 200 ng/g
[8] = liver, nominal concentration 1,000 ng/g
[9] = plasma, nominal concentration 50 ng/mL
[10] = plasma, nominal concentration 200 ng/mL
[11] = plasma, nominal concentration 1,000 ng/mL
[12] = both sexes, Sprague-Dawley, rat, iv, plasma, i.v. 1 mg/kg, n = 6, mean ± SD
[13] = both sexes, Sprague-Dawley, rat, plasma, iv, 1 mg/kg, i.v. 1 mg/kg, n = 6, mean ± SD
[14] = both sexes, Sprague-Dawley, rat, plasma, po, 100 mg/kg, oral 100 mg/kg, n = 6, mean ± SD
[15] = both sexes, Sprague-Dawley, rat, plasma, po, 200 mg/kg, oral 200 mg/kg, n = 6, mean ± SD
[16] = both sexes, Sprague-Dawley, rat, plasma, po, 400 mg/kg, oral 400 mg/kg, n = 6, mean ± SD
[17] = both sexes, Sprague-Dawley, rat, plasma, po, 400 mg/kg, oral single dose, range across 100, 200 and 400 mg/kg
[18] = both sexes, Sprague-Dawley, rat, plasma, oral 100 mg/kg, n = 6, mean ± SD
[19] = both sexes, Sprague-Dawley, rat, plasma, oral 200 mg/kg, n = 6, mean ± SD
[20] = both sexes, Sprague-Dawley, rat, plasma, oral 400 mg/kg, n = 6, mean ± SD

SMILES: N#C/C(=C\c1c[nH]nc1-c1ccccc1)c1nn(-c2ccccc2)c(N)c1C#N [LN002, 5-amino-3-[1-cyano-2-(3-phenyl-4-vinopyrazole))-1-phenyl-4-vinopyrazole]
- Auto-sampler stability (12 h), measured concentration [1, 3]: 0.048 ± 0.001
- Freeze and thaw stability at −20°C/Room temperature (3 cycles), measured concentration [1, 3]: 0.050 ± 0.002
- Long-term stability at −20°C (30 days), measured concentration [1, 3]: 0.048 ± 0.002
- Short-term stability at room temperature (6 h), measured concentration [1, 3]: 0.051 ± 0.002
- Auto-sampler stability (12 h), measured concentration [1, 4]: 0.191 ± 0.011
- Freeze and thaw stability at −20°C/Room temperature (3 cycles), measured concentration [1, 4]: 0.192 ± 0.009
- Long-term stability at −20°C (30 days), measured concentration [1, 4]: 0.202 ± 0.003
- Short-term stability at room temperature (6 h), measured concentration [1, 4]: 0.204 ± 0.007
- Auto-sampler stability (12 h), measured concentration [1, 5]: 1.001 ± 0.034
- Freeze and thaw stability at −20°C/Room temperature (3 cycles), measured concentration [1, 5]: 0.978 ± 0.053
- Long-term stability at −20°C (30 days), measured concentration [1, 5]: 0.997 ± 0.012
- Short-term stability at room temperature (6 h), measured concentration [1, 5]: 0.976 ± 0.042
- Auto-sampler stability (12 h), measured concentration [1, 6]: 0.049 ± 0.002
- Freeze and thaw stability at −20°C/Room temperature (3 cycles), measured concentration [1, 6]: 0.051 ± 0.002
- Long-term stability at −20°C (30 days), measured concentration [1, 6]: 0.051 ± 0.002
- Short-term stability at room temperature (6 h), measured concentration [1, 6]: 0.050 ± 0.003
- Auto-sampler stability (12 h), measured concentration [1, 7]: 0.198 ± 0.007
- Freeze and thaw stability at −20°C/Room temperature (3 cycles), measured concentration [1, 7]: 0.205 ± 0.005
- Long-term stability at −20°C (30 days), measured concentration [1, 7]: 0.196 ± 0.007
- Short-term stability at room temperature (6 h), measured concentration [1, 7]: 0.197 ± 0.009
- Auto-sampler stability (12 h), measured concentration [1, 8]: 1.065 ± 0.036
- Freeze and thaw stability at −20°C/Room temperature (3 cycles), measured concentration [1, 8]: 0.985 ± 0.057
- Long-term stability at −20°C (30 days), measured concentration [1, 8]: 0.995 ± 0.064
- Short-term stability at room temperature (6 h), measured concentration [1, 8]: 0.984 ± 0.042
- Auto-sampler stability (12 h), measured concentration [1, 9]: 0.050 ± 0.002
- Freeze and thaw stability at −20°C/Room temperature (3 cycles), measured concentration [1, 9]: 0.048 ± 0.002
- Long-term stability at −20°C (30 days), measured concentration [1, 9]: 0.052 ± 0.002
- Short-term stability at room temperature (6 h), measured concentration [1, 9]: 0.051 ± 0.003
- Auto-sampler stability (12 h), measured concentration [1, 10]: 0.204 ± 0.014
- Freeze and thaw stability at −20°C/Room temperature (3 cycles), measured concentration [1, 10]: 0.197 ± 0.014
- Long-term stability at −20°C (30 days), measured concentration [1, 10]: 0.203 ± 0.006
- Short-term stability at room temperature (6 h), measured concentration [1, 10]: 0.210 ± 0.013
- Auto-sampler stability (12 h), measured concentration [1, 11]: 0.992 ± 0.061
- Freeze and thaw stability at −20°C/Room temperature (3 cycles), measured concentration [1, 11]: 1.028 ± 0.035
- Long-term stability at −20°C (30 days), measured concentration [1, 11]: 1.035 ± 0.080
- Short-term stability at room temperature (6 h), measured concentration [1, 11]: 0.987 ± 0.032
- Stability in plasma and tissue homogenate (in words) ([1]; rat plasma, liver, intestinal contents, short-term, freeze and thaw, auto-sampler, long-term): stable
- Tmax ([2]; both sexes, Sprague-Dawley, rat, iv, plasma, i.v. 1 mg/kg, n = 6): 0.75 h
- AUC(0-inf) [2, 12]: 8650 ± 1940 ng·h/mL
- clearance [2, 12]: 1.83 mL/min/kg
- Vd ([2]; both sexes, Sprague-Dawley, rat, iv, plasma, i.v. 1 mg/kg, n = 6, mean ± SD, read-out: Vd): 1.69 ± 0.44 L/kg
- Cmax [2, 13]: 2940 ± 2160 ng/mL
- half-life [2, 13]: 10.9 ± 6.56 h
- AUC(0-t) ([2]; both sexes, Sprague-Dawley, rat, plasma, iv, 1 mg/kg, plasma, i.v. 1 mg/kg, n = 6, mean ± SD): 7020 ± 1520 ng·h/mL
- Cmax [2, 14]: 850 ± 190 ng/mL
- half-life [2, 14]: 18 ± 5.82 h
- bioavailability ([2]; both sexes, Sprague-Dawley, rat, plasma, po, 100 mg/kg, oral 100 mg/kg, read-out: F (oral bioavailability)): 0.32%
- AUC(0-t) ([2]; both sexes, Sprague-Dawley, rat, plasma, po, 100 mg/kg, plasma, oral 100 mg/kg, n = 6, mean ± SD): 2280 ± 227 ng·h/mL
- CL/F ([2]; both sexes, Sprague-Dawley, rat, plasma, po, 100 mg/kg, plasma, oral 100 mg/kg, n = 6, mean ± SD, read-out: Cl (Cl/F in text) (converted)): 433 mL/min/kg
- Cmax [2, 15]: 1670 ± 106 ng/mL
- half-life [2, 15]: 18 ± 14.8 h
- bioavailability ([2]; both sexes, Sprague-Dawley, rat, plasma, po, 200 mg/kg, oral 200 mg/kg, read-out: F (oral bioavailability)): 0.29%
- AUC(0-t) ([2]; both sexes, Sprague-Dawley, rat, plasma, po, 200 mg/kg, plasma, oral 200 mg/kg, n = 6, mean ± SD): 4070 ± 779 ng·h/mL
- CL/F ([2]; both sexes, Sprague-Dawley, rat, plasma, po, 200 mg/kg, plasma, oral 200 mg/kg, n = 6, mean ± SD, read-out: Cl (Cl/F in text) (converted)): 524 mL/min/kg
- Cmax [2, 16]: 4030 ± 410 ng/mL
- half-life [2, 16]: 18.8 ± 11.4 h
- bioavailability ([2]; both sexes, Sprague-Dawley, rat, plasma, po, 400 mg/kg, oral 400 mg/kg, read-out: F (oral bioavailability)): 0.27%
- Cmax [2, 17]: 850 to 4030 ng/mL
- half-life [2, 17]: 18 to 18.8 h
- bioavailability ([2]; both sexes, Sprague-Dawley, rat, plasma, po, 400 mg/kg, oral single dose, range across 100, 200 and 400 mg/kg, read-out: F): 0.27 to 0.32%
- AUC(0-t) ([2]; both sexes, Sprague-Dawley, rat, plasma, po, 400 mg/kg, plasma, oral 400 mg/kg, n = 6, mean ± SD): 7500 ± 507 ng·h/mL
- CL/F ([2]; both sexes, Sprague-Dawley, rat, plasma, po, 400 mg/kg, plasma, oral 400 mg/kg, n = 6, mean ± SD, read-out: Cl (Cl/F in text) (converted)): 650 mL/min/kg
- AUC(0-t) ([2]; both sexes, Sprague-Dawley, rat, plasma, po, 400 mg/kg, plasma, oral single dose, range across 100, 200 and 400 mg/kg): 2280 to 7500 ng·h/mL
- CL/F ([2]; both sexes, Sprague-Dawley, rat, plasma, po, 400 mg/kg, plasma, oral single dose, range across 100, 200 and 400 mg/kg, read-out: Cl/F): 433 to 650 mL/min/kg
- Tmax ([2]; both sexes, Sprague-Dawley, rat, plasma, oral 100 mg/kg, n = 6): 1 h
- AUC(0-inf) [2, 18]: 3530 ± 734 ng·h/mL
- Vd/F [2, 18]: 582 ± 270 L/kg
- Tmax ([2]; both sexes, Sprague-Dawley, rat, plasma, oral 200 mg/kg, n = 6): 1 h
- AUC(0-inf) [2, 19]: 6030 ± 2310 ng·h/mL
- Vd/F [2, 19]: 764 ± 314 L/kg
- AUC(0-inf) [2, 20]: 11400 ng·h/mL
- Vd/F [2, 20]: 869 ± 279 L/kg
- Tmax ([2]; both sexes, Sprague-Dawley, rat, plasma, oral single dose, across 100, 200 and 400 mg/kg): 1 h
- PK behaviour over dose (in words) ([2]; oral 100, 200 and 400 mg/kg): linear
- Vd ([2]; plasma, oral single dose, range across 100, 200 and 400 mg/kg): 581.54 to 869.21 L/kg
